Measured values taken from ChEMBL document CHEMBL1221406, “Germacrane-type sesquiterpenoids from the roots of Valeriana officinalis var. latifolia” (J Nat Prod, 2010).
Calls of active or inactive are those of the source. The calls are words filed in the database; no cut-off is given here.

Target: Acetylcholinesterase (Homo sapiens) (UniProt P22303)
Experiment: Inhibition of AchE at 100 uM after 30 mins by Ellman's method

Acetylcholinesterase (Homo sapiens), sequence (P22303 whole entry): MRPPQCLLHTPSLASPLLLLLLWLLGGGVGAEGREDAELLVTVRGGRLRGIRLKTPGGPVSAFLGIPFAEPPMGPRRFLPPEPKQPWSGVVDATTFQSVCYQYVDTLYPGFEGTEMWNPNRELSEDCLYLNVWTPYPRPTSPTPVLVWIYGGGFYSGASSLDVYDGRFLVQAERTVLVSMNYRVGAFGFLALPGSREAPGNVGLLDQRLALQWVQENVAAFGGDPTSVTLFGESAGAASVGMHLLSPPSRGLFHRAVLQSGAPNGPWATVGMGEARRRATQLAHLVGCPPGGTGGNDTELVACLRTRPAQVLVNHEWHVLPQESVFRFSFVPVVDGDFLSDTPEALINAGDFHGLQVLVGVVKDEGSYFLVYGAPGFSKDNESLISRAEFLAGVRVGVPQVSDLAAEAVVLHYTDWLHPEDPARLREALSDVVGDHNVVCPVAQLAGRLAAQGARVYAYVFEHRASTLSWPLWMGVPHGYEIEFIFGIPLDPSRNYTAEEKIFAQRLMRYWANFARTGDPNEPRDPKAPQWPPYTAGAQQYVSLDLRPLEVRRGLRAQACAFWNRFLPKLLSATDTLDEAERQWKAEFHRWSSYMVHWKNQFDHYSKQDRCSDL

Compound | inhibition
CC(=O)OC/C1=C\CC/C(C=O)=C\[C@@H]2[C@@H](CC1)C2(C)C | inactive
C=C1CC[C@H]2[C@@H](/C=C(\C(=O)O)CC[C@@H]1O)C2(C)C | inactive
CC(=O)O[C@H]1C/C(C)=C/CC/C(C(=O)O)=C/[C@@H]2[C@H]1C2(C)C | inactive
C/C1=C\CC/C(C(=O)O)=C/[C@@H]2[C@H](CC1)C2(C)C | inactive
C/C1=C\CC/C(C=O)=C\[C@H]2[C@@H](C[C@H]1O)C2(C)C | inactive
CC1(C)[C@@H]2CC[C@@]3(C=O)O[C@@H]3CC/C(C=O)=C\[C@@H]21 | inactive
CC1(C)[C@@H]2CC[C@@]3(C)O[C@@H]3CC/C(C=O)=C\[C@@H]21 | 25.9%
CC(=O)OC[C@@]12CC[C@@H]3[C@H](/C=C(/C=O)CC[C@H]1O2)C3(C)C | inactive
CC(=O)O[C@H]1C[C@@]2(C)O[C@@H]2CC/C(C=O)=C\[C@H]2[C@@H]1C2(C)C | inactive
